In patent publication US20260117171A1, “Human Pregnancy on a Chip for Normal and Disease Biomarker Discovery and Preclinical Trials” (Board of Regents, The University of Texas System, priority 2023, published 2026):

Test system: CD45+ cells
Assay: CD45+ cell trafficking between maternal/fetal compartments in the OOC device in response to an infectious stimulus
Assay type: cell-based, human
Conditions: LPS as infectious stimulus, preliminary study
Procedure: Immune cell migration and phenotyping by Cytometry by Time Of Flight (CyTOF) analysis: Preliminary CD45+ cell trafficking studies between the maternal/fetal compartments in the OOC device in response to an infectious stimulus (lipopolysaccharide [LPS]), to mimic bacterial infection, was conducted. In this model, LPS increased CD45+ cell influx into the fetal side and increased inflammation. Similar experiments can be repeated, and cell marker specificity can be tested through flow cytometry and immunocytochemistry^178. To study immunophenotypic changes associated with migrating immune cells, a multiplex tissue imaging technology can be used, e.g., Imaging Mass Cytometry (IMC) at an unprecedented resolution^179. IMC allows highly multiplexed, metal-based detection of 30 different protein markers at the same time, and enables high-dimensional, single-cell analysis of complex cell types without any background noise^180-184 (see Table 3 for a list of key/exemplary antibodies). For IMC, the top PDMS part can be removed so that fixed/attached cells stay on the histological glass slides on which the OOC device is built. IMC technology can be introduced to the OOC field, which allows for the analysis of cellular-level changes in OOC.

With lipopolysaccharide [LPS] the “CD45+ cell influx into the fetal side” value was “increased” and the inflammation was “increased”.
